One test deals with HDAC3 (Homo sapiens, UniProt O15379). As to the kind of experiment: HDAC3 colorimetric assay, substrate Boc-Lys(Ac)-AMC. The test is classed as biochemical. As to conditions: Table 1.
A further test addresses T1, HDAC6 (Homo sapiens, UniProt Q9UBN7).
T1 sequence (Q9UBN7 1-1215): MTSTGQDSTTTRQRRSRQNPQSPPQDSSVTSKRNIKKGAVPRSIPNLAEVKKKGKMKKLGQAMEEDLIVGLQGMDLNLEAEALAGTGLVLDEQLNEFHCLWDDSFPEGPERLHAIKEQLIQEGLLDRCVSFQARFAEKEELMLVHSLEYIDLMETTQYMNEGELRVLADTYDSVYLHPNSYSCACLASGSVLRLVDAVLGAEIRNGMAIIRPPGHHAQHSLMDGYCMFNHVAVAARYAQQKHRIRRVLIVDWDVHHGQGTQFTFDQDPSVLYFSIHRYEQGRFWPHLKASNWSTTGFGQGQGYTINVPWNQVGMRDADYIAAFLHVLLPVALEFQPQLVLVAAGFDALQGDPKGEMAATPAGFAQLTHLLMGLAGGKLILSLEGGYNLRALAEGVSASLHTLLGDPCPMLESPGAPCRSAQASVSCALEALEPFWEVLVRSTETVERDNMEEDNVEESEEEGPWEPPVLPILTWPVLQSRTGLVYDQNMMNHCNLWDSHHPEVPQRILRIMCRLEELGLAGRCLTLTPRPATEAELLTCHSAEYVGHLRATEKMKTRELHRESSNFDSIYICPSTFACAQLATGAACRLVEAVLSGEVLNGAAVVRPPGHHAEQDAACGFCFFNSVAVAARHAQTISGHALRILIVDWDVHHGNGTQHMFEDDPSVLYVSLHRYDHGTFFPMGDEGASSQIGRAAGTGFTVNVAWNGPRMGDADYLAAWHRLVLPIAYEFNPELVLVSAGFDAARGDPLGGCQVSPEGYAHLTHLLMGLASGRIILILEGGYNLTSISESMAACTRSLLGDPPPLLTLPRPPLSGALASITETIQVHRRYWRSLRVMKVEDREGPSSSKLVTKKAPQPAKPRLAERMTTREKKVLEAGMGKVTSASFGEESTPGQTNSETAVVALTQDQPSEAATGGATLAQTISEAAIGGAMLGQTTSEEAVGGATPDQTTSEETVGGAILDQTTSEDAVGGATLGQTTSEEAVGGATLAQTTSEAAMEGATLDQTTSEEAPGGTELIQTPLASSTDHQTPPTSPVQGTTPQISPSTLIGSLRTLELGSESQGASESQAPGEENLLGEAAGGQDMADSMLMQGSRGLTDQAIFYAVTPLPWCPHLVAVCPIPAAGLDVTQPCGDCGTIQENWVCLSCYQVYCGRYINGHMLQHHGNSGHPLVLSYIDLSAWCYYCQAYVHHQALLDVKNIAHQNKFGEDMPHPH
The test can be described thus: HDAC6 colorimetric assay, substrate Boc-Lys(Ac)-AMC. The test is classed as biochemical. As to conditions: Table 1; read-out: IC50 HDAC6.

A further test deals with HDAC2 (Homo sapiens, UniProt Q92769). The test can be described thus: HDAC2 colorimetric assay, substrate Boc-Lys(Ac)-AMC. As to conditions: Table 1. The test is classed as biochemical.
Sequence of HDAC2 (Q92769 whole entry): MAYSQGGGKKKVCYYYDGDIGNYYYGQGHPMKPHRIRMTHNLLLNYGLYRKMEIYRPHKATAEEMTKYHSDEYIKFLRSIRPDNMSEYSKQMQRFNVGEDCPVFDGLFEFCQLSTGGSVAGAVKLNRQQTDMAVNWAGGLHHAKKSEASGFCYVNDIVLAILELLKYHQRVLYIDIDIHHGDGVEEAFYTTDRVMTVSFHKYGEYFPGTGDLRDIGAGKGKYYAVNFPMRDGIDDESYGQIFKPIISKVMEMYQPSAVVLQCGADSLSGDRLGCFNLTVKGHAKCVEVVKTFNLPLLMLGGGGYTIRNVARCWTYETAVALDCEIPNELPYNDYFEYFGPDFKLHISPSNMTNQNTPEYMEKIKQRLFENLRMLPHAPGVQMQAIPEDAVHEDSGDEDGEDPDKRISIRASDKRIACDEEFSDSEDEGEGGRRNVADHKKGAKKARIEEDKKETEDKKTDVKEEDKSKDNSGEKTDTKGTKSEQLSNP
Test [1] relates to breast cancer cell line MCF-7. The test can be described thus: Growth inhibition of cancer cell line, resazurin assay. The test is classed as cell-based, Human. Conditions: Homo sapiens, MCF7; Table 2, resazurin assay. (Alamar Blue is a resazurin reagent that responds to reducing activity.)
In another test the target is HDAC1 (Homo sapiens, UniProt Q13547). As to the kind of experiment: HDAC1 colorimetric assay, substrate Boc-Lys(Ac)-AMC. Conditions: IC50 HDAC1, Table 1.
Sequence of HDAC1 (Q13547 whole entry): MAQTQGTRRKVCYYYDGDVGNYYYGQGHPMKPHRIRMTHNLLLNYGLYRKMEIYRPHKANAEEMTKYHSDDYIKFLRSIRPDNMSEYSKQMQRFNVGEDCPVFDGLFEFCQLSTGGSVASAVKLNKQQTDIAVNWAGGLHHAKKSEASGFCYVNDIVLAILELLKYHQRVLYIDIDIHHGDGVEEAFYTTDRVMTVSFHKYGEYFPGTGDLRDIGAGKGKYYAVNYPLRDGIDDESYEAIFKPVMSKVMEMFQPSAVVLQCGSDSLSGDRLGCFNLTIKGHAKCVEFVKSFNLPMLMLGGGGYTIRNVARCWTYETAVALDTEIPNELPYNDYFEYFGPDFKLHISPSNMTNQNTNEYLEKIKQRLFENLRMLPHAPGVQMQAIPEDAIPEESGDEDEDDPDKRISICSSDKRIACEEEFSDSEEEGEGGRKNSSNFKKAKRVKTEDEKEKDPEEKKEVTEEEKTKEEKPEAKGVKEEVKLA
For a further test, the target named is HDAC5 (Homo sapiens, UniProt Q9UQL6). The test can be described thus: HDAC5 colorimetric assay, substrate Boc-Lys(TFA)-AMC.
Sequence of HDAC5 (Q9UQL6 whole entry): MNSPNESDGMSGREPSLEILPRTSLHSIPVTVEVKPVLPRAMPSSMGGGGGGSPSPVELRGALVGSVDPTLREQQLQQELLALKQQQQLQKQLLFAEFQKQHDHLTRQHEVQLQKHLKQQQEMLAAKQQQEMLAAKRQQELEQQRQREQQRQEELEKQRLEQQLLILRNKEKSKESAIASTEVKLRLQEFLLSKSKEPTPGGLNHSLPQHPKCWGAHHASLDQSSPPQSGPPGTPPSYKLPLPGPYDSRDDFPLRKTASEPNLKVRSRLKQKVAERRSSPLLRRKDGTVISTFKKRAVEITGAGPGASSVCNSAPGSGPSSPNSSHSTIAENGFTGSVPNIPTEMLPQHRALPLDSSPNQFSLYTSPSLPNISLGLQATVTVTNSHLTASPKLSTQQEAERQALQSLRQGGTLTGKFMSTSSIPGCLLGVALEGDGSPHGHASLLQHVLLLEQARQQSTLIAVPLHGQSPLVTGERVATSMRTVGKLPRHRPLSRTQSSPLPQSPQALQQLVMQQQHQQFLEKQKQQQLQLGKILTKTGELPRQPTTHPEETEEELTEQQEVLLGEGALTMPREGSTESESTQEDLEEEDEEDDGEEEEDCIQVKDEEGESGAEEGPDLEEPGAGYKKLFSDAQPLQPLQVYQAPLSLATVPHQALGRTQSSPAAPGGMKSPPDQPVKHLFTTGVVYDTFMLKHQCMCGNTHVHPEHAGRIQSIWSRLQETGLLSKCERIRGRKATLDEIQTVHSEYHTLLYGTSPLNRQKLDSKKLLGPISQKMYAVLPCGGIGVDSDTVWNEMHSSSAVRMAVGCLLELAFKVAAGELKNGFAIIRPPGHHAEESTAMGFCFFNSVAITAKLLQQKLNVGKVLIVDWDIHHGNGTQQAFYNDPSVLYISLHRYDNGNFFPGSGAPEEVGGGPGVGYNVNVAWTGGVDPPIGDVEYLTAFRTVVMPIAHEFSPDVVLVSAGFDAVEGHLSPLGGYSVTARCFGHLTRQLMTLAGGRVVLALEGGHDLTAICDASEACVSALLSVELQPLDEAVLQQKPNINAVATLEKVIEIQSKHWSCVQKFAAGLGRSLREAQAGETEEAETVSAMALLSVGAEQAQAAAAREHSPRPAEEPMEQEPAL
Test [2] deals with uterine leiomyosarcoma cell line SKUT-1. As to the kind of experiment: Growth inhibition of cancer cell line, resazurin assay. The test is classed as cell-based, Human. As to conditions: Homo sapiens, SK-UT-1; Table 2, resazurin assay.
In a further test the target is HDAC4 (Homo sapiens, UniProt P56524). The test is classed as biochemical. As to conditions: Table 1.
Sequence of HDAC4 (P56524 whole entry): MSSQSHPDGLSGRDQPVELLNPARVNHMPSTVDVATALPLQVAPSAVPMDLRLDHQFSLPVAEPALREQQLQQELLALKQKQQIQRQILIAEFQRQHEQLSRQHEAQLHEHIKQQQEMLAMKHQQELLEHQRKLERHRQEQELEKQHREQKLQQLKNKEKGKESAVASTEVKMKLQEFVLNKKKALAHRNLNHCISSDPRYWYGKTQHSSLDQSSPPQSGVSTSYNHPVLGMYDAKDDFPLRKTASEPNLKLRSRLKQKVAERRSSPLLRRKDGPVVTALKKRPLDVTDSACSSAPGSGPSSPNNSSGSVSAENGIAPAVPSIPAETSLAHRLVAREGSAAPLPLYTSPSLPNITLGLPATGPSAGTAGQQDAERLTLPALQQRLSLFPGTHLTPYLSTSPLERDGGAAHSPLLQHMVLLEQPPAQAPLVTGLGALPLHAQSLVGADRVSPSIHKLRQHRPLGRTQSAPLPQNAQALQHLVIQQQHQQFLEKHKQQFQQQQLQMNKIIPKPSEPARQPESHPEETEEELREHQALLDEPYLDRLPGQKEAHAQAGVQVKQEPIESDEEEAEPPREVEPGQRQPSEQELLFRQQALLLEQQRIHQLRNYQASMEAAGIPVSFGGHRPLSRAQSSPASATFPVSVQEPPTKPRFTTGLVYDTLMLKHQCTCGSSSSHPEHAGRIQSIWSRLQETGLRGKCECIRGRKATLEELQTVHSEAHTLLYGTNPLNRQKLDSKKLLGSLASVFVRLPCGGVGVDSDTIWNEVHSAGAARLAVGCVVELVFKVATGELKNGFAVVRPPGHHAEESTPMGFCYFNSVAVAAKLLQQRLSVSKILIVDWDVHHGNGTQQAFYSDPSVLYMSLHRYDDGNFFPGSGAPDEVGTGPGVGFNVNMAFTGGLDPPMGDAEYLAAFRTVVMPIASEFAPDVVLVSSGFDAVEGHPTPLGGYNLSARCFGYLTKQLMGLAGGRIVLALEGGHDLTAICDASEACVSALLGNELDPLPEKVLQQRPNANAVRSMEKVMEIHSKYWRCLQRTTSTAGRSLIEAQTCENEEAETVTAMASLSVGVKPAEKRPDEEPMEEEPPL
The target of another test is T2, HDAC7 (Homo sapiens, UniProt Q8WUI4).
T2 sequence (Q8WUI4 1-952): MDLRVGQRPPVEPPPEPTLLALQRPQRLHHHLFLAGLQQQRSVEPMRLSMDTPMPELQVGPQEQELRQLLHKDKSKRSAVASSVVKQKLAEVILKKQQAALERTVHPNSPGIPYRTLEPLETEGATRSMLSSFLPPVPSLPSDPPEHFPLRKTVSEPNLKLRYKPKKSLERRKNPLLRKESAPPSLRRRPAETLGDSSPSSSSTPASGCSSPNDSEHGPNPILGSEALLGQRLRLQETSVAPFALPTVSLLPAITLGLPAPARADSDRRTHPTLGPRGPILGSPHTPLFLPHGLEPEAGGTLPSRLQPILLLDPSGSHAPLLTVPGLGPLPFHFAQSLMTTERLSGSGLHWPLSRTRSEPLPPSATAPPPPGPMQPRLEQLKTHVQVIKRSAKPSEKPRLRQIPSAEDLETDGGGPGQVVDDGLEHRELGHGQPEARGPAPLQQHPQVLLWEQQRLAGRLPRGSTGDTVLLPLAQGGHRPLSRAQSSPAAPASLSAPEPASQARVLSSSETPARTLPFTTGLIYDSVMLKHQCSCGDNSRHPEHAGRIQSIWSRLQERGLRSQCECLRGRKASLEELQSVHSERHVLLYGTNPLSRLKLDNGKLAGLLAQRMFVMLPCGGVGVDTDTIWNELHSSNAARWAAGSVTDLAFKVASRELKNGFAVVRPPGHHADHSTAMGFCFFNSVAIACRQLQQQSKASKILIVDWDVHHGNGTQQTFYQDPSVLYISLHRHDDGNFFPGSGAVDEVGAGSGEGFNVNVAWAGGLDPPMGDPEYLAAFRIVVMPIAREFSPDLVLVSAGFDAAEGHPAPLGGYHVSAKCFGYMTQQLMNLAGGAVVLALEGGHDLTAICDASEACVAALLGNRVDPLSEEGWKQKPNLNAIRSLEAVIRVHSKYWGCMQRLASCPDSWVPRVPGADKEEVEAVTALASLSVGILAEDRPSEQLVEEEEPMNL
As to the kind of experiment: HDAC7 colorimetric assay, substrate Boc-Lys(TFA)-AMC. Conditions: IC50 HDAC7, Table 1.

Test [3] relates to T cell leukemia cell line JURKAT. As to the kind of experiment: Growth inhibition of cancer cell line, resazurin assay. Conditions: Homo sapiens, Jurkat, read-out: GI50 JURKAT.
Experimental: The following tumor cell lines were used: • Human uterine leiomyosarcoma cell line SKUT-1 (ATCC® HTB114™) • Human T cell leukemia cell line JURKAT (ATCC® TIB152™) • Human breast cancer cell line MCF-7 (ATCC® HTB22™)
Cells were cultured in Dulbecco's modified Eagle's medium (DMEM) supplemented with 10% FCS.
The target in the next test is T3, HDAC8 (Homo sapiens, UniProt Q9BY41).
T3 sequence (Q9BY41 1-377): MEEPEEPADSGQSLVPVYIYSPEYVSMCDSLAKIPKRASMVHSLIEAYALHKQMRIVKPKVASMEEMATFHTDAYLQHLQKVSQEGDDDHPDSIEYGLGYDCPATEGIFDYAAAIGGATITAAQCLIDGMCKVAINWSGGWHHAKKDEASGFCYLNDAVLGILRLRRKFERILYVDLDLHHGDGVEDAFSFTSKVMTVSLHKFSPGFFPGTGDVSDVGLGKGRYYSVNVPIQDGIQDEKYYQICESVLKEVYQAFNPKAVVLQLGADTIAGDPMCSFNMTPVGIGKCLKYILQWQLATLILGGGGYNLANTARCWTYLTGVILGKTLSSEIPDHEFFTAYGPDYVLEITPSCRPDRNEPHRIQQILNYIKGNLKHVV
The test can be described thus: HDAC8 colorimetric assay, substrate Boc-Lys(TFA)-AMC. Conditions: IC50 HDAC8, Table 1.

Sequence of HDAC3 (O15379 whole entry): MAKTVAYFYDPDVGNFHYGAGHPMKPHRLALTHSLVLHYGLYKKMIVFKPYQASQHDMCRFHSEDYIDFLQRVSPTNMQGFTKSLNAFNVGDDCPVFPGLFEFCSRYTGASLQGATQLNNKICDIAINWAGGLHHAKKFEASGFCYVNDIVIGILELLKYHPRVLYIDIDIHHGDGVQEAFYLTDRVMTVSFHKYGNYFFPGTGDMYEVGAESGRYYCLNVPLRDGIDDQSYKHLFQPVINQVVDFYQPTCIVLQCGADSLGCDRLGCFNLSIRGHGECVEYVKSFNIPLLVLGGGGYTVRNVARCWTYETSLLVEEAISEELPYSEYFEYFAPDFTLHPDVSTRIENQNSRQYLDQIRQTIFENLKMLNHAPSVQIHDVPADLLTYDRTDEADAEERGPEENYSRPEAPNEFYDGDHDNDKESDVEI
Sequence of HDAC3 (Q9Y618 395-489 partner limits assumed): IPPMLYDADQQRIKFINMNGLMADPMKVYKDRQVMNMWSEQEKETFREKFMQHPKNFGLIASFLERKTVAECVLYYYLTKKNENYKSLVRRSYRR
Experimental for HDAC1: 1 nM of HDAC1 was incubated with increasing concentrations of the respective compound for 30 minutes at 30° C. The reaction was initiated by addition of 50 μM of the substrate Boc-Lys(Ac)-AMC. After an incubation of 60 minutes the reaction was stopped by addition of 20 μM SAHA and the deacetylated substrate was converted into a fluorescent product by the addition of trypsin.
Experimental for HDAC8: 1 nM of HDAC4 was incubated with increasing concentrations of the respective compound for 30 minutes at 30° C. The reaction was initiated by addition of 20 μM of the substrate Boc-Lys(trifluoracetyl)-AMC. After an incubation of 60 minutes the reaction was stopped by addition of 20 μM SAHA and the deacetylated substrate was converted into a fluorescent product by the addition of trypsin.

A word on the IC50: it is the concentration that inhibits the measured activity by half. As usually defined, the GI50 is the concentration giving 50% growth inhibition. Regarding `N=C1Sc2cc(Br)ccc2C2=NCCCN12` [Compound 13g, 9-Bromo-3,4-Dihydrobenzo[e]Pyrimido[1,2-c][1,3]Thiazin-6(2H)-Imine], the IC50 against HDAC3 was 6.7 ± 0.4 µM; on HDAC6, 2.8 ± 0.7 µM; at HDAC2, above 50 µM; on HDAC1, 1.7 ± 0.2 µM; against HDAC5, 0.14 ± 0.02 µM; on HDAC4, 2 ± 0.1 µM. In addition, the IC50 against HDAC7 came out at 1.7 ± 0.2 µM; against HDAC8 it was 0.0029 ± 0.0001 µM. Also, the GI50 was above 1000 µM in test [1], 76 ± 7 µM in test [2] and 30 ± 3 µM in test [3].

Take `N=C1Sc2c(F)cccc2C2=NCCCN12` [Compound 13h, 8-Fluoro-3,4-dihydrobenzo[e]pyrimido[1,2-c][1,3]thiazin-6(2H)-imine]: the IC50 is above 50 µM against HDAC3; 5.2 ± 1.1 µM on HDAC6; above 50 µM on HDAC2; 35 ± 3 µM on HDAC1; 0.74 ± 0.16 µM at HDAC5; 5.1 ± 0.6 µM at HDAC4. Besides, the IC50 is 5 ± 1 µM on HDAC7 and 0.017 ± 0.001 µM against HDAC8. Moreover, the GI50 in test [1] was above 1000 µM; in [2] it was above 1000 µM; in [3], 42 ± 3 µM.

Regarding `N=C1Sc2c(F)cccc2C2=NCCN12` [Compound 13i, 7-Fluoro-2H-Benzo[e]Imidazo[1,2-c][1,3]Thiazin-5(3H)-Imine], the IC50 at HDAC3, at HDAC6, against HDAC2, against HDAC1, on HDAC5 and on HDAC4 was above 50 µM each time. In addition, the results for the IC50 on HDAC7 and at HDAC8 were above 50 µM and 9.2 ± 0.3 µM, respectively. Besides, the figures for the GI50 in [1], in test [2] and in test [3] were 16 ± 3 µM, 109 ± 29 µM and 24 ± 3 µM, respectively.

Consider `N=C1Sc2cccc(Br)c2C2=NCCCN12` [Compound 13j, 11-Bromo-3,4-Dihydrobenzo[e]Pyrimido[1,2-c][1,3]Thiazin-6(2H)-Imine], for which the IC50 came to 7 ± 0.5 µM against HDAC3; 1.4 ± 0.2 µM on HDAC6; 16 ± 2 µM at HDAC2; 2.6 ± 0.3 µM against HDAC1; 0.038 ± 0.001 µM against HDAC5; 2.3 ± 0.3 µM on HDAC4. Also, the IC50 was 2 ± 0.7 µM on HDAC7 and 0.0063 ± 0.0004 µM against HDAC8. Further, the GI50 in [1] is 11 ± 3 µM; in test [2], 16 ± 3 µM; in [3] it was 17 ± 3 µM.

Turning to `Cc1ccc2c(c1)SC(=N)N1CCCN=C21` [Compound 13k, 9-Methyl-3,4-Dihydrobenzo[e]Pyrimido[1,2-c][1,3]Thiazin-6(2H)-Imine], the IC50 on HDAC3 was 26 ± 4 µM; on HDAC6, 1.3 ± 0.3 µM; at HDAC2, above 50 µM; on HDAC1 it was 5.8 ± 0.3 µM; on HDAC5, 0.24 ± 0.01 µM; against HDAC4, 7.6 ± 0.8 µM. Besides, the IC50 against HDAC7 was determined as 2.5 ± 0.1 µM; at HDAC8 it was 0.0054 ± 0.0004 µM. Moreover, the GI50 in [1] came out at 44 ± 12 µM; in test [2], 45 ± 16 µM; in test [3], 36 ± 4 µM.

In the case of `N=C1Sc2ccc(F)cc2C2=NCCCN12` [Compound 13l, 10-Fluoro-3,4-Dihydrobenzo[e]Pyrimido[1,2-c][1,3]Thiazin-6(2H)-Imine], the IC50 at HDAC3 stood at 5.3 ± 0.4 µM; at HDAC6 it was 0.65 ± 0.11 µM; against HDAC2, 30 ± 2 µM; on HDAC1 it was 2.1 ± 0.2 µM; against HDAC5 it was 0.046 ± 0.003 µM; against HDAC4, 2.2 ± 0.3 µM. The IC50 against HDAC7 was determined as 1.5 ± 0.4 µM; on HDAC8, 0.006 ± 0.0006 µM. Also, the GI50 was 79 ± 11 µM in [1], 24 ± 5 µM in test [2] and 16 ± 2 µM in [3].

`Cc1cccc2c1C1=NCCCN1C(=N)S2` [Compound 13m, 11-Methyl-3,4-Dihydrobenzo[e]Pyrimido[1,2-c][1,3]Thiazin-6(2H)-Imine]: the IC50 is 9.6 ± 0.7 µM against HDAC3; 1.3 ± 0.3 µM at HDAC6; above 50 µM on HDAC2; 3.7 ± 0.4 µM on HDAC1; 0.038 ± 0.002 µM against HDAC5; 3.2 ± 0.5 µM on HDAC4. Also, the IC50 on HDAC7 was 1.3 ± 0.2 µM; against HDAC8 it was 0.0043 ± 0.0005 µM. Also, the GI50 was found to be 179 ± 66 µM in test [1], 35 ± 2 µM in [2] and 23 ± 2 µM in test [3].

(Values after patent US20210220370A1, “SELECTIVE HDAC8 INHIBITORS AND THEIR USES” (HOCHSCHULE DARMSTADT, priority 2015, published 2021).)
